In US20240423915A1, “LIPIDS FOR USE IN LIPID NANOPARTICLES” (Acuitas Therapeutics, Inc., priority 2023, published 2024):

System: human IgG in mouse serum
Assay: Immunoglobulin G (IgG) mRNA in vivo evaluation using lipid nanoparticle compositions (human IgG ELISA of mouse serum)
Parameters: species or system CD-1/ICR mice
Conditions: LNP with cationic lipid/DSPC/cholesterol/PEG lipid, tail vein injection, mouse serum 24 hours after administration; for Serum IgG (μg/mL) @ 0.3 mg/kg: IgG mRNA 0.3 mg mRNA/kg; for Serum IgG (μg/mL) @ 1.0 mg/kg: IgG mRNA 1.0 mg mRNA/kg
Procedure: A lipid of Formula (I), DSPC, cholesterol and PEG-lipid of Formula (II) are solubilized in ethanol at a molar ratio of 50:10:38.5:1.5 or 47.5:10:40.7:1.8. Lipid nanoparticles (LNP) are prepared at a total lipid to mRNA weight ratio of approximately 10:1 to 40:1. Briefly, the mRNA is diluted to 0.2 mg/mL in 10 to 50 mM citrate buffer, pH 4 to 6 or 10 to 25 mM acetate buffer, pH 4 to 6. Syringe pumps are used to mix the ethanolic lipid solution with the mRNA aqueous solution at a ratio of about 1:5 to 1:3 (vol/vol) with total flow rates above 15 mL/min. The ethanol is then removed, and the external buffer replaced with PBS by dialysis. Finally, the lipid nanoparticles are filtered through a 0.2 μm pore sterile filter.
Studies are performed in 6-8-week-old CD-1/ICR mice (Charles River or Inotiv) according to guidelines established by an institutional animal care committee (ACC) and the Canadian Council on Animal Care (CCAC). Varying doses of mRNA-lipid nanoparticle are systemically administered by tail vein injection and animals euthanized at a specific time point (e.g., 24 hours) post-administration. The whole blood is collected, and the serum subsequentially separated by centrifuging the tubes of the whole blood at 2000×g for 10 minutes at 4° C. and stored at −80° C. until use for analysis.
For immunoglobulin G (IgG) ELISA (Life Diagnostics Human IgG ELISA kit), the serum samples are diluted at 100 to 20,000 folds with 1× diluent solution. 100 μL of diluted serum is dispensed into anti-human IgG coated 96-well plate in duplicate alongside human IgG standards and incubated in a plate shaker at 150 rpm at 25° C. for 45 minutes. The wells are washed 5 times with 1× wash solution using a plate washer (400 μL/well). 100 μL of HRP conjugate is added into each well and incubated in a plate shaker at the same condition above. The wells are washed 5 times again with 1× wash solution using a plate washer (400 μL/well). 100 μL of TMB reagent is added into each well and incubated in a plate shaker at the same condition above. The reaction is stopped by adding 100 μL of Stop solution to each well. The absorbance is read at 450 nm (A450) with a microplate reader. The amount of human IgG in mouse serum is determined by plotting A450 values for the assay standard against human IgG concentration.
Representative compounds of the disclosure shown in Table 2 were formulated using the following molar ratio: 50% cationic lipid/10% distearoylphosphatidylcholine (DSPC)/38.5% Cholesterol/1.5% PEG lipid 2-[2-(ω-methoxy(polyethyleneglycol2000)ethoxy]-N,N-ditetradecylacetamide) or 47.5% cationic lipid/10% DSPC/40.7% Cholesterol/1.8% PEG lipid. Relative activity was determined by measuring the amount of human IgG in mouse serum as described in Example 1. The activity was compared at a dose of 1.0 or 0.3 mg mRNA/kg and expressed as ng luciferase/g liver measured 4 hours after administration, as described in Example 1 or as μg IgG/mL serum measured 24 hours after administration, as described in Example 2. Compound numbers in Table 2 refer to the compound numbers of Table 1.

Row | Compound | Serum IgG (μg/mL) @ 0.3 mg/kg | Serum IgG (μg/mL) @ 1.0 mg/kg
1 | CCCCCCCCCCOC(=O)OCCCCCCCCN(CCCCCO)CCCCCCCC(=O)N(CCCCCCCCCC)CCCCCCCCCC [Compound I-1, decyl (8-((8-(didecylamino)-8-oxooctyl)(5-hydroxypentyl)amino)octyl) carbonate] | 15.6 ± 5.1 µg/mL | 121.5 ± 33.1 µg/mL
2 | CCCCCCCCCCOC(=O)OCCCCCCCCN(C)CCCCCCCC(=O)N(CCCCCCCCCC)CCCCCCCCCC [Compound I-2, decyl (8-((8-(didecylamino)-8-oxooctyl)(methyl)amino)octyl) carbonate] | 22.3 ± 7.8 µg/mL | 134.9 ± 26.6 µg/mL
3 | CCCCCCCCCCN(CCCCCCCCCC)C(=O)CCCCCCCN(CCCCCO)CCCCCCCCOC(=O)OC(CCCCCCC)CCCCCCC [Compound I-3, 8-((8-(didecylamino)-8-oxooctyl)(5-hydroxypentyl)amino)octylpentadecan-8-yl carbonate] | 30.1 ± 2.1 µg/mL | 173.3 ± 9.3 µg/mL
4 | CCCCCCCCCCN(CCCCCCCCCC)C(=O)CCCCCCCN(C)CCCCCCCCOC(=O)OC(CCCCCCC)CCCCCCC [Compound I-4, 8-((8-(didecylamino)-8-oxooctyl)(methyl)amino)octylpentadecan-8-yl carbonate] | 8.5 ± 2.0 µg/mL | 73.6 ± 15.6 µg/mL
5 | CCCCCCCCCCN(CCCCCCCCCC)C(=O)CCCCCCCCC(CCCCCCCCC(=O)OCC(CCCC)CCCCCC)N(CCCCCCCCCC)C(=O)CCN(C)C (stereo not shown) [Compound I-8, 2-butyloctyl 10-(N-decyl-3-(dimethylamino)propanamido)-19-(didecylamino)-19-oxononadecanoate] | 21.7 ± 4.3 µg/mL | 232.4 ± 42.5 µg/mL
6 | CCCCCCCCCCN(CCCCCCCCCC)C(=O)CCCCCCCN(CCCCCO)CCCCCCCCOC(=O)OCC(CC)CCCC (stereo not shown) [Compound I-11, 8-((8-(didecylamino)-8-oxooctyl)(5-hydroxypentyl)amino)octyl (2-ethylhexyl) carbonate] | 39.6 ± 6.3 µg/mL | –
7 | CCCCCCCCCCN(CCCCCCCCCC)C(=O)CCCCCCCN(CCCCCO)CCCCCCCCOC(=O)OCC(CCCC)CCCCCC (stereo not shown) [Compound I-12, 2-butyloctyl (8-((8-(didecylamino)-8-oxooctyl)(5-hydroxypentyl)amino)octyl) carbonate] | 19.7 ± 6.8 µg/mL | –
8 | CCCCCCCCCCC(CCCCCCCCCC)OC(=O)OCCCCCCCCCN(CCCCCO)CCCCCCCC(=O)N(CCCCCCCCCC)CCCCCCCCCC [Compound I-13, 9-((8-(didecylamino)-8-oxooctyl)(5-hydroxypentyl)amino)nonyl henicosan-11-yl carbonate] | 18.2 ± 3.3 µg/mL | 143.2 ± 23.9 µg/mL
9 | CCCCCCCCCCN(CCCCCCCCCC)C(=O)CCCCCCCN(CCCCCO)CCCCCCCCCOC(=O)OC(CCCC)CCCC [Compound I-14, 9-((8-(didecylamino)-8-oxooctyl)(5-hydroxypentyl)amino)nonyl nonan-5-yl carbonate] | 37.0 ± 18.5 µg/mL | 280.8 ± 86.6 µg/mL
10 | CCCCCCCCCCC(CCCCCCCCCC)OC(=O)OCCCCCN(CCCCCO)CCCCCCCC(=O)N(CCCCCCCCCC)CCCCCCCCCC [Compound I-15, 5-((8-(didecylamino)-8-oxooctyl)(5-hydroxypentyl)amino)pentyl henicosan-11-yl carbonate] | 7.8 ± 4.0 µg/mL | –
11 | CCCCCCCCCCN(CCCCCCCCCC)C(=O)CCCCCCCN(CCCCCO)CCCCCOC(=O)OC(CCCC)CCCC [Compound I-16, 5-((8-(didecylamino)-8-oxooctyl)(5-hydroxypentyl)amino)pentyl nonan-5-yl carbonate] | 18.5 ± 2.7 µg/mL | 75.4 ± 53.7 µg/mL
12 | CCCCCCCCCCN(CCCCCCCCCC)C(=O)CCCCCCCN(CCCCCO)CCCCCCCCCOC(=O)OC(CCCCCC)CCCCCC [Compound I-17, 9-((8-(didecylamino)-8-oxooctyl)(5-hydroxypentyl)amino)nonyl tridecan-7-yl carbonate] | 20.1 ± 6.7 µg/mL | –
13 | CCCCCCCCCCN(CCCCCCCCCC)C(=O)CCCCCCCN(CCCCCO)CCCCCCCOC(=O)OC(CCCCCCCC)CCCCCCCC [Compound I-18, 7-((8-(didecylamino)-8-oxooctyl)(5-hydroxypentyl)amino)heptyl heptadecan-9-yl carbonate] | 51.5 ± 9.5 µg/mL | 290.2 ± 50.5 µg/mL
14 | CCCCCCCCCCN(CCCCCCCCCC)C(=O)CCCCCCCN(CCCCCO)CCCCCCCCOC(=O)OCC(CCCCCC)CCCCCCCC (stereo not shown) [Compound I-19, 8-((8-(didecylamino)-8-oxooctyl)(5-hydroxypentyl)amino)octyl (2-hexyldecyl) carbonate] | 25.1 ± 4.2 µg/mL | 184.5 ± 40.2 µg/mL
15 | CCCCCCCCC(CCCCCCCC)OC(=O)OCCCCCCCN(CCCCCO)CCCCCCCCCC(=O)N(CCCCCCCC)CCCCCCCC [Compound I-20, 7-((10-(dioctylamino)-10-oxodecyl)(5-hydroxypentyl)amino)heptyl heptadecan-9-yl carbonate] | 51.4 ± 12.8 µg/mL | –
16 | CCCCCCCCCCCCN(CCCCCCCCCCCC)C(=O)CCCCCN(CCCCCO)CCCCCCCOC(=O)OC(CCCCCCCC)CCCCCCCC [Compound I-21, 7-((6-(didodecylamino)-6-oxohexyl)(5-hydroxypentyl)amino)heptyl heptadecan-9-yl carbonate] | 9.7 ± 3.3 µg/mL | –
17 | CCCCCCCCCCCCN(CCCCCCCCCCCC)C(=O)CCCCCCCN(CCCCCO)CCCCCCCOC(=O)OC(CCCCCCCC)CCCCCCCC [Compound I-22, 7-((8-(didodecylamino)-8-oxooctyl)(5-hydroxypentyl)amino)heptyl heptadecan-9-yl carbonate] | 22.8 ± 11.0 µg/mL | –
18 | CCCCCCCCC(CCCCCCCC)OC(=O)OCCCCCCCN(CCCCCO)CCCCCCCC(=O)N(CCCCCCCC)CCCCCCCC [Compound I-23, 7-((8-(dioctylamino)-8-oxooctyl)(5-hydroxypentyl)amino)heptyl heptadecan-9-yl carbonate] | 34.8 ± 12.3 µg/mL | –
19 | CCCCCCCCCCN(CCCCCCCCCC)C(=O)CCCCCCCCC(CCCCCCCCC(=O)OCC(CCCC)CCCCCC)N(CCCCCCCC)C(=O)CCCN1CCCC1 (stereo not shown) [Compound I-24, 2-butyloctyl 19-(didecylamino)-10-(n-octyl-4-(pyrrolidin-1-yl)butanamido)-19-oxononadecanoate] | 25.1 ± 7.7 µg/mL | –
20 | CCCCCCCCCCN(CCCCCCCCCC)C(=O)CCCCCCCCC(CCCCCCCCC(=O)OCC(CCCC)CCCCCC)N(CCCCCCCCCC)C(=O)CCCN(C)C (stereo not shown) [Compound I-25, 2-butyloctyl 10-(n-decyl-4-(dimethylamino)butanamido)-19-(didecylamino)-19-oxononadecanoate] | 9.3 ± 1.7 µg/mL | 68.3 ± 13.4 µg/mL
